Data taken from patent US20110269793A1, “METHOD FOR PREVENTING TAU PROTEIN AGGREGATION AND TREATING ALZHEIMER'S DISEASE WITH A QUINOLINE DERIVATIVE COMPOUND” (priority 2010, published 2011).
Where two headings read alike, the source gives them in different places.

Key:
[1] = test system: tau protein from bovine brain; settings: 7 days 37° C.; for Tau polymer concentration: tau 2.0 mg/mL, heparin 200 μg/mL, +control 3.00, −control 1.38
Protocol: (§1) Effect of the quinolines in the tau aggregation. Turbidimetric studies. Tau aggregation was monitored by means of its absorbance at λ 340 nm using UV spectrophotometry. Purified and highly concentrated tau protein from bovine brain (2.0 mg/mL) was re-suspended in MES 0.1 M pH 7.2 buffer and induced to polymerize in the form of PHFs in the presence of polyanions (heparin at a concentration of 200 μg/mL) at a final volume of 1.0 mL. This mixture was incubated at 37° C. and maintained under gentle agitation for 7 days. At the same time, another sample containing the tau protein, heparin (200 μg/mL) and the selected quinoline at different concentrations from 1.0 to 50 μM and a final volume of 1.0 mL was incubated in the same way, thus verifying the effect that quinolines have over tau aggregation. […] As an additional control the tau protein was replaced with water in order to measure the absorbance of these quinolines. Each sample was carried out in triplicate.
Effect of quinolines in tau aggregation. Sedimentation studies. After 7 days of incubation at 37° C. under gentle agitation, the sedimentation of the tau aggregates was conducted in the presence and in absence of quinolines. To this purpose, 400 μl were taken of each one of the samples prepared for the turbidimetric analysis and they were centrifuged at 42,000 g (18.000 rpm using the AH-650 rotor) at 37° C. for 25 min. The pellet obtained from each sample of this centrifugation was re-suspended in 50 μL of MES 0,1 M slightly alkaline (pH 7.2) buffer and the concentration of protein was established for each one of them. In this procedure, and because the sample volume is very small, a nanophotometer was used, measuring the concentration of the sedimented and re-suspended protein at λ 280 nm.

[2] = biological target: Human Tau (441a.a.) (Homo sapiens, UniProt P10636); experiment: Scatchard saturation test with ^3H-AST, tau filaments; format: binding; settings: for Affinity to tau filaments (in words): saturation studies, FIG. 12
Source text: (§2) Interactions of quinolines with tau and in vitro displacement tests with H^3-AST. In previous laboratory tests by the inventor and also from other authors (Okamura N., Suemoto T., Furumoto S., Suzuki M., Shimadzu H., Akatsu H., Yamamoto T., Fujiwara H., Nemoto M., Maruyama M., Arai H., Yanai K., Sawada T., Kudo Y. (2005), Quinoline and becimidazole derivatives: candidate probes for in vivo imaging of tau pathology in Alzheimer's disease, J. Neurosci. 25: 10857-10862; Rojo L., Avila M., Chandia M., and Maccioni R. B. (2007), ^18F Lansoprazole as PET radiotracer, Chemical and biological studies towards the development of a New PET Radiotracer, International Conference on Clinical PET and Molecular Nuclear Medicine. 10-14 November, Bangkok) the Kd and binding maximums specific to some benzimidazols of clinical use were established, among them [O-methyl-3H]-astemizol (FIG. 2) through the interaction established with the tau protein. With this background Scatchard and displacement tests are performed with the quinolines mentioned before.
(§3) For the Scatchard test a fixed tau protein concentration (230 nM) and variable concentrations of ^3H-AST between 10 and 120 nM was used, leading to a final volume of 20 μL with 8% ethanol (EtOH 8%). The tau protein underwent treatment previous to this test, incubating the same at 37° C. under gentle agitation for 7 days. Subsequently the tau protein and ^3H-AST were incubated for 4 h at 25° C. under gentle agitation. Then this solution was filtered under vacuum for 10 minutes and the filtering papers were dried at room temperature, and transferred to a vial with 1.0 mL of scintillating liquid. It is then left in the dark and finally the counts per minute (cpm) are measured in a scintillating counting equipment.

[3] = biological target: mGluR 5 (Homo sapiens, UniProt P41594); settings: Yanamala et al. 2008; cited from earlier work
[4] = biological target: mGluR I (Homo sapiens, UniProt Q13255); settings: Yanamala et al. 2008; cited from earlier work
[5] = Octanol/water partition coefficient (Log P); format: physicochemical; settings: for Liposolubility expressed as Log P (in words): as candidates to cross the BHE; for logP: n-octanol / PBS 0.1× buffer, read-out: Log P (experimental)
Protocol: Pharm. Hung. 62 (1-2): 55-64, wherein 2 phases are used, an aqueous phase comprising a buffer solution PBS 0.1× pH 7.4 that is saturated with an n-octanol solution that comprises the organic phase.
Stock solutions at 1.0 mg/mL of each quinoline being studied were prepared in PBS buffer 0.1× pH 7.4 saturated in octanol. […] Starting from these solutions, dilutions were made for a range concentration of between 1.0 mg/mL and 100 μg/mL to establish their maximum absorbance in the UV-visible region.
Then the tested quinolines were dissolved in PBS 0.1× pH 7.4 saturated in n-octanol and agitated for 30 min. at room temperature. Subsequently, this emulsion was left to settle for 48 h and a centrifugation at 3,000 rpm for 10 minutes was carried out to separate the phases. Both the octanol/water partition coefficient and Log P were established using the difference in the absorbance in the UV-visible region for each compound using equation 1:
[THQ in octanol]=[THQ start]−[THQ buffer] Éq. 1:
The concentrations for THQ start are established using equation 2: […]
Subsequently, the P quotient in established between both phases as described by equation 3: […]
Finally the partition coefficient is established by Log P.
For this test 2 controls were used: clidinium bromide that is a quaternary amine that is not liposoluble, and sodium thiopental, which is a very liposoluble barbituric anaesthetic. Each part of the test was done in triplicate.

[6] = biological target: T1, hTau protein (Homo sapiens, UniProt P10636); settings: hTau 230 nM, ^3H-AST 52 nM, cold ligand 10 nM to 10 μM
Protocol: (§4) Subsequently, the tau protein, ^3H-AST and the quinolines are incubated for 4 hours at 25° C. under gentle agitation and the procedure depicted in FIG. 3 is followed.

[7] = biological target: T1, hTau protein; experiment: biochemical
Protocol: as §4

[8] = test system: tau protein from bovine brain; settings: THQ 55 1.0 to 50 μM, FIG. 11
Protocol: as §1

[9] = biological target: Human PHFs; experiment: Scatchard saturation test with ^3H-AST, PHFs; format: binding
Source text: as §2, §3

[10] = partition coefficient octanol/PBS buffer 0.1× pH 7.4, triplicate
[11] = tau filaments induced with heparin

Sequence of Human Tau (441a.a.) (P10636 1-441 isoform P10636-8): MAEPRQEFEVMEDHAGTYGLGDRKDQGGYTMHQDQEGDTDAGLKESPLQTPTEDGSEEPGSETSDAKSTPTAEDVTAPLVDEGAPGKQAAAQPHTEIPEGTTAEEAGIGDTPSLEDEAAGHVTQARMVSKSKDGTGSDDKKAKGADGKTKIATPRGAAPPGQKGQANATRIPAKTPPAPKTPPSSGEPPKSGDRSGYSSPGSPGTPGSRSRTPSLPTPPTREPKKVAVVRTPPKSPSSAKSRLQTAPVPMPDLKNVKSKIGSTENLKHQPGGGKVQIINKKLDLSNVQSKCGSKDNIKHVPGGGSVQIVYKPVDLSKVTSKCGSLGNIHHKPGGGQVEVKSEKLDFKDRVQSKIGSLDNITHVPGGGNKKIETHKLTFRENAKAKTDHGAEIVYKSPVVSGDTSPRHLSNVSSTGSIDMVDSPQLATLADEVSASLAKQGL
T1 sequence (P10636 with tags, fused parts or gaps): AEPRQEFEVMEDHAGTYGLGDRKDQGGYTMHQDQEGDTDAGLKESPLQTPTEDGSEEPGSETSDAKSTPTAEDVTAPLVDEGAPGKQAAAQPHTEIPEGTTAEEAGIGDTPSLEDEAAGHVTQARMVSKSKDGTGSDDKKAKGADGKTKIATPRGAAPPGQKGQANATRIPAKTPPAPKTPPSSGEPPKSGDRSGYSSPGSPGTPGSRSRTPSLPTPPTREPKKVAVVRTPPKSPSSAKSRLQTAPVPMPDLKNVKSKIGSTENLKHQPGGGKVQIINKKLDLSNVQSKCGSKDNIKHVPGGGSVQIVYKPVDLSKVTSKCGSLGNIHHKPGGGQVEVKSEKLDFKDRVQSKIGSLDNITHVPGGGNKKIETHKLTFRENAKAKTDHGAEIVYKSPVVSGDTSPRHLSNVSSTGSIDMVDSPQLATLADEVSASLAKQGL
Sequence of mGluR I (Q13255 19-1194): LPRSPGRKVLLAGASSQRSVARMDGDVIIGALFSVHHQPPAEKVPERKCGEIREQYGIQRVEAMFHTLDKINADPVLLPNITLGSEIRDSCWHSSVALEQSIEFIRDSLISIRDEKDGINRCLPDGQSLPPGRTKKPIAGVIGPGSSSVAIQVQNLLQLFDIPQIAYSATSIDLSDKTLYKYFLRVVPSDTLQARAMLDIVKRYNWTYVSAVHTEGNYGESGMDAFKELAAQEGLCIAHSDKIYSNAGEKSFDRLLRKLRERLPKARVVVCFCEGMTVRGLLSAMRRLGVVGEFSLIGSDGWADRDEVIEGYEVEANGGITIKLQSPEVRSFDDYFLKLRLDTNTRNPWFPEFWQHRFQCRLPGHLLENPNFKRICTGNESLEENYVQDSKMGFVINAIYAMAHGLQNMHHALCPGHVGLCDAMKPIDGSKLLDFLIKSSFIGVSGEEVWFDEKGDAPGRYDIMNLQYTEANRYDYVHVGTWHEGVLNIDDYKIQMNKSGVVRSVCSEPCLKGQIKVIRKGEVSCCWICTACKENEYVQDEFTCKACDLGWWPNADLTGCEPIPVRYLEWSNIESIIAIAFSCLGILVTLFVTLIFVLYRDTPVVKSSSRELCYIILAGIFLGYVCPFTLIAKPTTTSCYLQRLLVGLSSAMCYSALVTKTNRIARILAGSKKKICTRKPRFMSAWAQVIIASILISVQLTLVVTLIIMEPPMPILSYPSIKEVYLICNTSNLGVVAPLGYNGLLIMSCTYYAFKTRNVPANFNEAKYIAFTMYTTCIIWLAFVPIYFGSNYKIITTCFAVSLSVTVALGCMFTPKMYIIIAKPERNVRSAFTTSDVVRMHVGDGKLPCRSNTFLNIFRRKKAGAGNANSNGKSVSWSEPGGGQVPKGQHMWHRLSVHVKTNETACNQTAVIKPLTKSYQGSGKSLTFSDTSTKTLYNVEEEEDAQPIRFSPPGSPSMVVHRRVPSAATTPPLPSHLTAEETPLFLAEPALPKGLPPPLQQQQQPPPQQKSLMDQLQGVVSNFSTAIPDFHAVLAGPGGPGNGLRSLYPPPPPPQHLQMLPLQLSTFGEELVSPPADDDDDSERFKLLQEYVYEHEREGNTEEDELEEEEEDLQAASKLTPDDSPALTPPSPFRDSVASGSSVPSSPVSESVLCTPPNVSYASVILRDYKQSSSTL
Sequence of mGluR 5 (P41594 21-1212): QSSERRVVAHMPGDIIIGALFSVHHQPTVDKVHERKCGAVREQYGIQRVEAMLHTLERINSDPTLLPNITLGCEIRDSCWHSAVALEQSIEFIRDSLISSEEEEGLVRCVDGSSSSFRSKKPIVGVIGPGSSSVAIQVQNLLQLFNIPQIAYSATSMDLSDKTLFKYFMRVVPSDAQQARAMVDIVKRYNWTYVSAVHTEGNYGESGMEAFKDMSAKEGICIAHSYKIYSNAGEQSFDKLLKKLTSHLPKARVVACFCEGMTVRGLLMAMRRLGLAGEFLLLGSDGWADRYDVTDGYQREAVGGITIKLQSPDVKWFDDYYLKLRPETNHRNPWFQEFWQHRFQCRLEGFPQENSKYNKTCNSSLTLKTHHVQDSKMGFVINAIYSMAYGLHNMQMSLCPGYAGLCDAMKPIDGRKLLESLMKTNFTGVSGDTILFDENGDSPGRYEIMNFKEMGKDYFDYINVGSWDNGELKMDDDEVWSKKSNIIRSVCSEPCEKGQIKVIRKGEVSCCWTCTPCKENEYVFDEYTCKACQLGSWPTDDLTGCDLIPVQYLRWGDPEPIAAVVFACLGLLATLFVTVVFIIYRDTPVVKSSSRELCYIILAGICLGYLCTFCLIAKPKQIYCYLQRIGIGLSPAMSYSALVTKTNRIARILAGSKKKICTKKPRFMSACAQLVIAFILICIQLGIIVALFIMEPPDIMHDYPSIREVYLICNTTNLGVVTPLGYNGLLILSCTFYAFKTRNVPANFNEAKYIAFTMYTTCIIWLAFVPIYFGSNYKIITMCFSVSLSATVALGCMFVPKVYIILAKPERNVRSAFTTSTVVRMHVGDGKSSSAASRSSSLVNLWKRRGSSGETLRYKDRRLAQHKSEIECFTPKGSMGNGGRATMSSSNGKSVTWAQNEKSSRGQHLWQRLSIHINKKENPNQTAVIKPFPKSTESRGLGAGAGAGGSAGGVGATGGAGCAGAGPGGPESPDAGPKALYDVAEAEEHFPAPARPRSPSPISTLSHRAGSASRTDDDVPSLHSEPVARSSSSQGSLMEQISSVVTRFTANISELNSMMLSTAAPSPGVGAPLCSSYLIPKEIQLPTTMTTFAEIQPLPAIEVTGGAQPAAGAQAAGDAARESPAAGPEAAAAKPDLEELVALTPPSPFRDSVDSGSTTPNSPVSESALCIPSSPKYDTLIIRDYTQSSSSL

COc1ccc(CCN2CCC(Nc3nc4ccccc4n3Cc3ccc(F)cc3)CC2)cc1 [Ast, Astemizol, reference compound]
Tau polymer concentration ([1]; compound 10 μM): 2.84 + 0.002 mg/mL | Affinity to tau filaments (in words) [2]: high affinity

Cc1cccc(C#Cc2ccccc2)n1 [MPEP]
Docking Energies [3]: -7.77 kcal/mol

O=C(Cc1ccccc1)c1ccc2nc3c(cc2c1)CCCO3 [R214127]
Docking Energies [4]: -7.34 kcal/mol

COc1ccc2nc(-c3ccc(C)cc3)ccc2c1 [THQ 3S, 2-(4-methylphenyl), 6-(O-methyl)quinoline]
Log P (experimental) [5, 10]: 0.434 + 0.005

Cc1ccc(-c2ccc3cc(C)ccc3n2)cc1 [THQ 4S, 2-(4methylphenyl), 6-(methyl)quinoline]
Displacement of the radioligand [6]: do not displace the radioligand | Ki [7]: > 10000 nM | Liposolubility expressed as Log P (in words) [5]: optimal | logP [5, 10]: 2.66

Cc1ccc(-c2ccc3cccc(Br)c3n2)cc1 [THQ 9S, 2-(4-methylphenyl), 8-(bromo)quinoline]
logP [5, 10]: -0.214

Cc1cccc(-c2ccc3cc(C)ccc3n2)c1 [THQ 12S, 2-(5-methylphenyl), 6-(methyl)quinoline]
Liposolubility expressed as Log P (in words) [5]: optimal | logP [5, 10]: 2.58

Cc1ccc2nc(-c3ccc(N)cc3)ccc2c1 [THQ 55, 2-(4-aminophenyl), 6-(methyl)quinoline]
Inhibition of tau aggregation (absorbance at λ 340) [8]: high capacity to inhibit tau aggregation | Effect over the auto-aggregation of tau protein (sedimented protein at λ 280 nm) [1]: pronounced inhibitory effect | Tau polymer concentration ([1]; compound 1.0 μM): 2.72 + 0.002 mg/mL | Tau polymer concentration ([1]; compound 10 μM): 2.43 + 0.003 mg/mL | Tau polymer concentration ([1]; compound 50.0 μM): 0.79 + 0.004 mg/mL | Displacement of the radioligand [6]: do not displace the radioligand | Ki [7]: > 10000 nM | Liposolubility expressed as Log P (in words) [5]: optimal | logP [5, 10]: 1.97

COc1ccc(CCN2CCC(Nc3nc4ccccc4n3Cc3ccc(F)cc3)CC2)cc1 [^3H-AST, [O-methyl-3H]-astemizol]
Kd [9]: 3.94 nM | Kd [2, 11]: 1.86 nM

[3H]COc1ccc(CCN2CCC(Nc3nc4ccccc4n3Cc3ccc(F)cc3)CC2)cc1 [^3H-AST, [O-methyl-3H]-astemizol]
Bmax [9]: 13.07 nM | Bmax/Kd index [9]: 3.316 | Bmax/Kd index [2]: 3.00 | Affinity to tau filaments (in words) [2]: high affinity | Bmax [2, 11]: 5.7 pmol/nmol tau
